Assay results taken from ChEMBL document CHEMBL1201862, “PubChem BioAssay data set” (2004).
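Grown in 96-well plates, cells were treated for 48 hours with each compound at five concentrations. Insufficient inhibition: endpoint recorded as highest concentration tested. Here, GI50 denotes the concentration required for 50% inhibition of growth.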 Activity calls are given as the source filed them. No stated cut-off is given here; in the data, active = GI50 up to about 1.1 µM and inactive = higher.

Tests used:
Test in all cases: growth of human tumour cells (NCI), 48 h
UO-31 = tested on: UO-31
SN12C = tested on: SN12C
SF-539 = tested on: SF-539
Malme-3M = tested on: Malme-3M
LXFL 529 = tested on: LXFL 529
SK-MEL-28 = tested on: SK-MEL-28
M19-MEL = tested on: M19-MEL
HOP-92 = tested on: HOP-92
IGROV-1 = tested on: IGROV-1
HCT-15 = tested on: HCT-15
OVCAR-3 = tested on: OVCAR-3
KM-20L2 = tested on: KM-20L2
MOLT-4 = tested on: MOLT-4
CCRF-CEM = tested on: CCRF-CEM
HL-60 = tested on: HL-60
SNB-75 = tested on: SNB-75
M14 = tested on: M14
HOP-18 = tested on: HOP-18
RPMI-8226 = tested on: RPMI-8226
SW-620 = tested on: SW-620
SF-295 = tested on: SF-295
OVCAR-4 = tested on: OVCAR-4
U-251 = tested on: U-251
SK-MEL-5 = tested on: SK-MEL-5
DMS-114 = tested on: DMS-114
XF498 = tested on: XF498
HCC 2998 = tested on: HCC 2998
NCI-H23 = tested on: NCI-H23
RXF 631 = tested on: RXF 631
HT-29 = tested on: HT-29
KM12 = tested on: KM12
SK-MEL-2 = tested on: SK-MEL-2
ACHN = tested on: ACHN
COLO 205 = tested on: COLO 205
SF-268 = tested on: SF-268
CAKI-1 = tested on: CAKI-1
LOX IMVI = tested on: LOX IMVI
DMS-273 = tested on: DMS-273
NCI-H226 = tested on: NCI-H226
NCI-H460 = tested on: NCI-H460
SNB-78 = tested on: SNB-78
K562 = tested on: K562
UACC-62 = tested on: UACC-62
786-0 = tested on: 786-0
A498 = tested on: A498
HOP-62 = tested on: HOP-62
A549 = tested on: A549
DLD-1 = tested on: DLD-1
OVCAR-5 = tested on: OVCAR-5
SK-OV-3 = tested on: SK-OV-3
RXF 393 = tested on: RXF 393
UACC-257 = tested on: UACC-257
TK-10 = tested on: TK-10
OVCAR-8 = tested on: OVCAR-8
SR = tested on: SR
SNB-19 = tested on: SNB-19
HCT-116 = tested on: HCT-116
EKVX = tested on: EKVX
NCI-H522 = tested on: NCI-H522

In the case of `COC1(OC)CC2OC1C1N=NN(C(=O)OC(C)(C)C)C21` (centres undefined), the GI50 (UO-31) is reported as > 100 µM (inactive), the GI50 (SN12C) is reported as > 100 µM (inactive) and the GI50 (SF-539) is reported as > 100 µM (inactive). For the same compound, the GI50 (Malme-3M) was > 100 µM (inactive), the GI50 (LXFL 529) was > 100 µM (inactive) and the GI50 (SK-MEL-28) was > 100 µM (inactive). For the same compound, the GI50 (M19-MEL) was > 100 µM (inactive), the GI50 (HOP-92) was > 100 µM (inactive) and the GI50 (IGROV-1) was > 100 µM (inactive). The GI50 (HCT-15) was 43.7 µM, the GI50 (OVCAR-3) was 49.3 µM (inactive) and the GI50 (KM-20L2) was > 100 µM (inactive). For the same compound, the GI50 (MOLT-4) was 35.2 µM (inactive), the GI50 (CCRF-CEM) was 21.1 µM (inactive) and the GI50 (HL-60) was 24.3 µM (inactive). For the same compound, the GI50 (SNB-75) was > 100 µM (inactive), the GI50 (M14) was > 100 µM (inactive) and the GI50 (HOP-18) was > 100 µM (inactive). The GI50 (RPMI-8226) was 52.7 µM (inactive), the GI50 (SW-620) was 57.5 µM (inactive) and the GI50 (SF-295) was > 100 µM (inactive). The GI50 (OVCAR-4) was > 100 µM (inactive), the GI50 (U-251) was > 100 µM (inactive) and the GI50 (SK-MEL-5) was > 100 µM (inactive). The GI50 (DMS-114) was 67 µM (inactive), the GI50 (XF498) was > 100 µM (inactive) and the GI50 (HCC 2998) was > 100 µM (inactive). The GI50 (NCI-H23) was > 100 µM (inactive), the GI50 (RXF 631) was > 100 µM (inactive) and the GI50 (HT-29) was > 100 µM (inactive). For the same compound, the GI50 (KM12) was > 100 µM (inactive), the GI50 (SK-MEL-2) was > 100 µM (inactive) and the GI50 (ACHN) was > 100 µM (inactive). For the same compound, the GI50 (COLO 205) was > 100 µM (inactive), the GI50 (SF-268) was > 100 µM (inactive) and the GI50 (CAKI-1) was > 100 µM (inactive). The GI50 (LOX IMVI) was > 100 µM (inactive), the GI50 (DMS-273) was > 100 µM (inactive) and the GI50 (NCI-H226) was > 100 µM (inactive). For the same compound, the GI50 (NCI-H460) was > 100 µM (inactive), the GI50 (SNB-78) was > 100 µM (inactive) and the GI50 (K562) was 36 µM (inactive). The GI50 (UACC-62) was > 100 µM (inactive), the GI50 (786-0) was > 100 µM (inactive) and the GI50 (A498) was > 100 µM (inactive). For the same compound, the GI50 (HOP-62) was > 100 µM (inactive), the GI50 (A549) was > 100 µM (inactive) and the GI50 (DLD-1) was 34.8 µM (inactive). The GI50 (OVCAR-5) was > 100 µM (inactive), the GI50 (SK-OV-3) was > 100 µM (inactive) and the GI50 (RXF 393) was > 100 µM (inactive). The GI50 (UACC-257) was > 100 µM (inactive).
`CN(C)c1ncnc2c1Cc1ccccc1C(=O)N2C` was tested, and the GI50 (UO-31) was > 100 µM (inactive), the GI50 (SN12C) was > 100 µM (inactive) and the GI50 (SF-539) was > 100 µM (inactive). For the same compound, the GI50 (Malme-3M) was > 100 µM (inactive), the GI50 (LXFL 529) was > 100 µM (inactive) and the GI50 (TK-10) was > 100 µM (inactive). The GI50 (SK-MEL-28) was > 100 µM (inactive), the GI50 (M19-MEL) was > 100 µM (inactive) and the GI50 (HOP-92) was > 100 µM (inactive). The GI50 (IGROV-1) was > 100 µM (inactive), the GI50 (OVCAR-8) was > 100 µM (inactive) and the GI50 (OVCAR-3) was > 100 µM (inactive). For the same compound, the GI50 (KM-20L2) was > 100 µM (inactive), the GI50 (SR) was > 100 µM (inactive) and the GI50 (MOLT-4) was > 100 µM (inactive). For the same compound, the GI50 (SNB-19) was > 100 µM (inactive), the GI50 (CCRF-CEM) was > 100 µM (inactive) and the GI50 (HL-60) was > 100 µM (inactive). For the same compound, the GI50 (SNB-75) was > 100 µM (inactive), the GI50 (M14) was > 100 µM (inactive) and the GI50 (HOP-18) was > 100 µM (inactive). For the same compound, the GI50 (RPMI-8226) was > 100 µM (inactive), the GI50 (SW-620) was > 100 µM (inactive) and the GI50 (SF-295) was > 100 µM (inactive). For the same compound, the GI50 (OVCAR-4) was > 100 µM (inactive), the GI50 (U-251) was > 100 µM (inactive) and the GI50 (SK-MEL-5) was > 100 µM (inactive). For the same compound, the GI50 (DMS-114) was > 100 µM (inactive), the GI50 (XF498) was > 100 µM (inactive) and the GI50 (HCC 2998) was > 100 µM (inactive). The GI50 (NCI-H23) was > 100 µM (inactive), the GI50 (RXF 631) was > 100 µM (inactive) and the GI50 (HT-29) was > 100 µM (inactive). For the same compound, the GI50 (KM12) was > 100 µM (inactive), the GI50 (SK-MEL-2) was > 100 µM (inactive) and the GI50 (ACHN) was > 100 µM (inactive). The GI50 (COLO 205) was > 100 µM (inactive), the GI50 (SF-268) was > 100 µM (inactive) and the GI50 (CAKI-1) was > 100 µM (inactive). For the same compound, the GI50 (LOX IMVI) was > 100 µM (inactive), the GI50 (DMS-273) was > 100 µM (inactive) and the GI50 (HCT-116) was > 100 µM (inactive). For the same compound, the GI50 (NCI-H226) was > 100 µM (inactive), the GI50 (NCI-H460) was > 100 µM (inactive) and the GI50 (SNB-78) was > 100 µM (inactive). For the same compound, the GI50 (K562) was > 100 µM (inactive), the GI50 (UACC-62) was > 100 µM (inactive) and the GI50 (EKVX) was > 100 µM (inactive). The GI50 (786-0) was > 100 µM (inactive), the GI50 (NCI-H522) was > 100 µM (inactive) and the GI50 (HOP-62) was > 100 µM (inactive). For the same compound, the GI50 (A549) was > 100 µM (inactive), the GI50 (DLD-1) was > 100 µM (inactive) and the GI50 (OVCAR-5) was > 100 µM (inactive). For the same compound, the GI50 (SK-OV-3) was > 100 µM (inactive), the GI50 (RXF 393) was > 100 µM (inactive) and the GI50 (UACC-257) was > 100 µM (inactive).
